In patent EP0398621A2, “Immunoassay of elastase-1” (SHIONOGI SEIYAKU KABUSHIKI KAISHA trading under the name of …, priority 1989, dated 1990):

Assays:
E1 = test: Radioimmunoassay standard curves of Boc-TACK-treated E1 and untreated E1; type: binding, human; conditions: standard curve of Boc-TACK-treated E1 compared with untreated E1
Description: (§1) As for measuring buffer solution, 0.01 M phosphate buffer (pH 7.4) containing 0.1 mM Boc-TACK, 0.9% sodium chloride, 0.05% sodium azide and 0.2% bovine serum albumin was used unless otherwise mentioned. One hundred µl of standard E1 solution (0.5 - 50ng/ml) or sample serum was taken into a polystyrene tube. To this were added 100 µl each of ¹²⁵I-labelled E1 solution and anti-E1 serum, which was then mixed and incubated for 3 hours at 37°C. Next, 500 µl of the preparation of the second antibody was added, which was mixed and incubated for 30 minutes at 37°C. The incubated product was centrifuged (3000 rpm, 5 minutes), after which the supernatant was removed by suction and the radioactivity of the precipitate was measured.
To evaluate the effect of Boc-TACK on the immunological reaction of E1, standard curves were drawn of Boc-TACK-treated E1 and untreated E1, and then comparison was made between the two.

¹²⁵I-labelled E1 [1] = test: Radioimmunoassay: effect of α₁-antitrypsin or α₂-macroglobulin on the binding rate of anti-E1 serum with ¹²⁵I-labelled E1; parameters: species or system human
Description: as §1
Radioimmunoassay was performed using α₁-antitrypsin or α₂-macroglobulin solution in place of the standard E1 solution, whereby the effect of these on the binding rate was examined. As for measuring buffer solution, one mentioned in above-mentioned (7) was used in one method (A method), and one not containing Boc-TACK was used in another method (B method), and one containing PMSF in place of Boc-TACK was used in third method (C method) (Fig. 2).

¹²⁵I-labelled E1 [2] = test: Gel filtration: binding of serum inhibitor to ¹²⁵I-labelled E1 in human serum; conditions: 30 minutes at 37°C, Ultrogel AcA 44, ¹²⁵I-labelled E1 treated with the inhibitor
Description: To human serum was added ¹²⁵I-labelled E1, which was incubated for 30 minutes at 37°C. This was then subjected to gel filtration [Ultrogel AcA 44 (made by IBF Biotechnichs), ⌀ 1.5 x 55cm, developing solution: 0.1 M phosphate buffer (pH 7.1)]. The eluate was collected in 1-ml portions and the radioactivity in each fraction was measured.
When the human serum to which ¹²⁵I-labelled E1 not treated with Boc-TACK had been added was subjected to gel filtration, the ¹²⁵I-labelled E1 was all eluted in the fraction of its complex containing α₁-antitrypsin and α₂-macroglobulin (Fig. 1-a).

elastase-1 = conditions: prior art statement; cited from earlier work

| SMILES | effect on the immunological reaction of E1 (E1) | binding rate with increases in serum inhibitor (¹²⁵I-labelled E1 [1]; α₁-antitrypsin or α₂-macroglobulin solution in place of standard E1, inhibitor in measuring buffer solution) | binding rate with α₂-macroglobulin in a high concentration (¹²⁵I-labelled E1 [1]; α₂-macroglobulin in a high concentration, 0.1 mM Boc-TACK in measuring buffer solution) | elution of ¹²⁵I-labelled E1 in free fraction or complex fraction (¹²⁵I-labelled E1 [2]) | capability of inhibiting the binding of α₁-antitrypsin and α₂-macroglobulin to elastase-1 (elastase-1) |
| --- | --- | --- | --- | --- | --- |
| CC(NC(=O)[C@H](C)NC(=O)[C@H](C)NC(=O)OC(C)(C)C)C(=O)CCl (some centres unmarked) [Boc-TACK, Nα-[N-(tert-butoxycarbonyl)alanyl]-N-(3-chloro-1-methyl-2-oxopropyl)alanineamide] | did not affect the immunological reaction of E1 in any way | little change was observed in the binding rate | only a slight decrease | none of it was found in the complex fraction |  |
| O=S(=O)(F)Cc1ccccc1 [PMSF, phenylmethanesulfonyl fluoride] |  |  |  |  | weak capability |
